Laboratory results: ChEMBL document CHEMBL3832761, “MMV Pathogen Box Bioactivity Data” (2017)
Activity calls are given as the source filed them. The rule behind the calls is not given here.

How the values were obtained:
[1] = system: Schistosoma mansoni; assay: AntiSchistosoma mansoni activity Adults IC50 (uM); format: functional, organism-based
[2] = system: HepG2; assay: Cytotoxicity data HepG2 CC20 (uM); format: functional
[3] = system: Schistosoma mansoni; assay: AntiSchistosoma mansoni activity Adults: Effect at 10 uM after 48h; format: functional, organism-based
[4] = system: Schistosoma mansoni; assay: AntiSchistosoma mansoni activity Newly Transformed Schistosomula: inhibition at 10 uM at 72h (%); format: functional
[5] = system: Schistosoma mansoni; assay: AntiSchistosoma mansoni activity Juveniles IC50 (uM); format: functional, organism-based
[6] = system: MRC5; assay: MRC5 CC50 (uM) Cytotoxicity; format: functional; conditions: Homo sapiens
[7] = system: Schistosoma mansoni; assay: AntiSchistosoma mansoni activity Larva IC50 (uM); format: functional, organism-based
[8] = system: Trypanosoma brucei; assay: AntiTrypanosoma brucei activity T. b. brucei IC50 (uM); format: functional, organism-based
[9] = system: Trypanosoma brucei; assay: AntiTrypanosoma brucei activity T. b. rhodesiense IC50 (uM); format: functional, organism-based
[10] = system: Leishmania infantum; assay: AntiLeishmania activity L. infantum (macrophages) IC50 (uM); format: functional, organism-based
[11] = system: Leishmania major; assay: AntiLeishmania activity L. major IC50 (uM); format: functional, organism-based
[12] = system: Trypanosoma cruzi; assay: AntiTrypanosoma cruzi activity IC50 (uM); format: functional, organism-based
[13] = PMM CC50 (uM) Cytotoxicity; format: functional; conditions: Macrophage
[14] = system: Toxoplasma gondii; assay: AntiToxoplasma gondii activity data Inhibition of plaque forming efficiency (%) Experiment B; format: functional; parameters: concentration or dose not given beside the values
[15] = system: Toxoplasma gondii; assay: AntiToxoplasma gondii activity data 2-day killing assay: IC50 (uM), Experiment G; format: functional, organism-based
[16] = system: Toxoplasma gondii; assay: AntiToxoplasma gondii activity data 2-day killing assay: inhibition at 10 uM (%) Experiment E; format: functional
[17] = HL60 CC50 (uM) Cytotoxicity; format: functional; conditions: HL-60
[18] = system: Toxoplasma gondii; assay: AntiToxoplasma gondii activity data Inhibition of plaque forming efficiency (%) Experiment A; format: functional; parameters: concentration or dose not given beside the values
[19] = system: Toxoplasma gondii; assay: AntiToxoplasma gondii activity data 2-day killing assay: inhibition at 10 uM (%) Experiment D; format: functional
[20] = system: Toxoplasma gondii; assay: AntiToxoplasma gondii activity data 2-day killing assay: inhibition at 10 uM (%) Experiment C; format: functional; conditions: 48 h
[21] = system: Toxoplasma gondii; assay: AntiToxoplasma gondii activity data 2-day killing assay: IC50 (uM), Experiment F; format: functional, organism-based
[22] = system: Schistosoma mansoni; assay: AntiSchistosoma mansoni activity Newly Transformed Schistosomula: IC50 at 72h (uM); format: functional, organism-based
[23] = system: Leishmania donovani; assay: AntiLeishmania activity L. donovani (macrophages) IC50 (uM); format: functional, organism-based
[24] = system: Leishmania donovani; assay: AntiLeishmania activity L. donovani (axenic) IC50 (uM); format: functional, organism-based
[25] = system: L6; assay: L6 CC50 (uM) Cytotoxicity; format: functional; conditions: Rattus norvegicus
[26] = system: Leishmania; assay: AntiLeishmania activity Toxicity on infected PMM (uM); format: functional

Compound: Cc1nn(C(=O)Nc2cccc(C(F)(F)F)c2)c(C)c1Sc1ncccn1
- IC50 [1]: 2 µM
- CC20 [2]: 30.7 µM
- Activity [3]: Active
- Inhibition [4]: 33.3%
- IC50 [5]: 4.05 µM

Compound: CS(=O)(=O)c1ccc(C(=O)N(CC2CCCO2)c2nc3ccccc3s2)cc1[N+](=O)[O-] (configuration not stated)
- IC50 [1]: 4.8 µM
- CC20 [2]: 6.94 µM
- CC50 [6]: 6.2 µM
- IC50 [7]: 0.29 µM
- Inhibition [4]: 100%
- IC50 [5]: 3.22 µM

Compound: COc1ccc(-c2onc(C(F)(F)F)c2-c2ccc(Cl)cc2)c(O)c1
- IC50 [1]: 5.3 µM
- CC50 [6]: 8.3 µM
- IC50 [7]: 3.36 µM
- Inhibition [4]: 20%
- IC50 [5]: 7.02 µM

Compound: Nc1ccc2ncnc(Nc3ccc(OCc4cccc(F)c4)c(Cl)c3)c2c1
- IC50 [8]: > 32 µM
- IC50 [9]: 13.1 µM
- CC20 [2]: 9.72 µM
- IC50 [10]: > 32 µM
- CC50 [6]: > 32 µM
- IC50 [11]: 10.4 µM
- IC50 [12]: 4.03 µM
- CC50 [13]: > 32 µM

Compound: Cc1ccccc1C(=O)N1N=C(Nc2ccccc2)SC1(C)C
- IC50 [1]: 5.3 µM
- CC20 [2]: 8 µM
- CC50 [6]: > 50 µM
- IC50 [7]: 6.7 µM
- Inhibition [4]: 0%
- IC50 [5]: 5.8 µM

Compound: CC(C(=O)Nc1ccc2oc(-c3ccncc3)nc2c1)c1ccccc1 (configuration not stated)
- Inhibition [14]: ~75%
- IC50 [15]: no inhibition
- Inhibition [16]: 1.05%
- CC50 [17]: > 50 µM
- Inhibition [18]: 100%
- Inhibition [19]: 62.6%
- inhibition at 10 µM [20]: 3.75%
- IC50 [21]: no inhibition

Compound: c1ccc(-c2[nH]c3ccccc3c2C(c2ccccn2)N2CCCC2)cc1 (configuration not stated)
- IC50 [1]: 3.2 µM
- IC50 [22]: 0.51 µM
- CC20 [2]: 1 µM
- CC50 [6]: 86 µM
- IC50 [7]: 0.5 µM
- Inhibition [4]: 100%
- IC50 [5]: 2.5 µM

Compound: Cc1[nH]c2ccccc2c1C(c1cccs1)N1CCN(C)CC1 (configuration not stated)
- IC50 [1]: 7.2 µM
- IC50 [22]: 0.29 µM
- CC20 [2]: 8.46 µM
- CC50 [6]: > 20 µM
- Inhibition [4]: 100%
- IC50 [5]: 3.8 µM

Compound: CS(=O)(=O)N1CCC(CCn2nc(Cc3cccc4ccccc34)c3c(N)ncnc32)CC1
- Inhibition [14]: 100%
- IC50 [15]: no inhibition
- Inhibition [16]: 20.6%
- CC50 [17]: > 50 µM
- Inhibition [18]: 100%
- Inhibition [19]: 63.9%
- inhibition at 10 µM [20]: 0%
- IC50 [21]: no inhibition

Compound: CC(=O)N1CCN(c2ccc(Oc3ccc(Cl)cc3O)cc2)CC1
- Inhibition [14]: ~90%
- IC50 [15]: no inhibition
- Inhibition [16]: 64.6%
- CC50 [17]: > 50 µM
- Inhibition [18]: ~90%
- Inhibition [19]: 22.4%
- inhibition at 10 µM [20]: 71%
- IC50 [21]: no inhibition

Compound: Cc1ncc(-c2ccnc(Nc3ccc(S(C)(=O)=O)cc3)n2)n1C(C)C [AZD-5438]
- IC50 [8]: 0.26 µM
- IC50 [9]: < 0.13 µM
- CC20 [2]: 0.18 µM
- IC50 [10]: 1.15 µM
- CC50 [6]: 1 µM
- IC50 [11]: 3.15 µM
- IC50 [12]: 1.08 µM
- CC50 [13]: 4 µM

Compound: COc1ccc(-c2cnc3cnc(-c4cccc(OC(C)C)c4)cn23)cc1
- IC50 [1]: 4.9 µM
- IC50 [22]: 1.18 µM
- CC20 [2]: 24.3 µM
- Activity [3]: Active
- CC50 [6]: 40.1 µM
- IC50 [7]: 6.7 µM
- Inhibition [4]: 93%
- IC50 [5]: 5.7 µM

Compound: Cc1cc2nc(NC(=O)C(C)(C)C)nc(Cl)c2n1Cc1ccc(Cl)cc1
- Inhibition [14]: ~50%
- IC50 [15]: no inhibition
- Inhibition [16]: 0%
- CC50 [17]: > 25 µM
- Inhibition [18]: ~85%
- Inhibition [19]: 63.9%
- inhibition at 10 µM [20]: 0%
- IC50 [21]: no inhibition

Compound: CNc1nnc(Sc2cnn(-c3ccccc3)c(=O)c2Cl)s1
- IC50 [22]: 0.15 µM
- CC20 [2]: 1.55 µM
- Inhibition [4]: 100%
- IC50 [5]: 3.7 µM

Compound: CC(C)(C)OC(=O)N1CCN(c2cc(-c3ccc(Oc4ccccc4)cc3)n[nH]2)CC1
- IC50 [23]: > 10 µM
- IC50 [8]: 3.89 µM
- IC50 [9]: 2.7 µM
- CC20 [2]: 4.03 µM
- IC50 [10]: 10.2 µM
- CC50 [6]: > 32 µM
- IC50 [24]: 1.32 µM
- IC50 [11]: 13 µM
- IC50 [12]: 9.37 µM
- CC50 [25]: 4.8 µM
- CC50 [13]: 16 µM
- Toxicity on infected macrophages [26]: 20 µM
